According to patent publication US20230201284A1, “Uses and Formulations of Cannabinoids” (priority 2020, published 2023):
Like-named read-outs stand apart in the source and are kept apart here.

Columns and labels:
[1] = systemic exposure after i.p. and oral application of CBD in mice (Deiana et al.); assay type: in vivo; details: 20 mg/kg, assuming dose-proportional plasma concentrations
Experimental: A comparative investigation for systemic exposure after i.p. and oral application of CBD in mice and rats has shown that 120 mg/kg as a single dose leads to a maximum plasma concentration of 14,000 ng/ml in mice (S. Deiana et al. (2012). Plasma and brain pharmacokinetic profile of cannabidiol (CBD), cannabidivarine (CBDV), Delta(9)-tetrahydrocannabivarin (THCV) and cannabigerol (CBG) in rats and mice following oral and intraperitoneal administration and CBD action on obsessive-compulsive behaviour. Psychopharmacology (Berl) 219(3): 859-73).

[2] = n-octanol/water; cited from earlier work
[3] = mice, 120 mg/kg single dose; cited from earlier work
IL-6 secretion = details: cellular models, majority of cases; cited from earlier work
[4] = test system: LPS-induced acute lung injury; details: cited from earlier work
human mononuclear cells = details: nanomolar or micromolar concentrations; cited from earlier work
human neutrophils = details: cited from earlier work
CD83 = details: cited from earlier work
microglial cells = details: 1-16 μmol/l; cited from earlier work
[5] = test system: chemically induced acute hepatitis; details: mice, 25 mg/kg; cited from earlier work
[6] = test system: activated memory T cell line; details: 1-5 μmol/l, cited from earlier work
[7] = test system: ischemia-reperfusion-induced kidney injury; details: mice, 10 mg/kg after induced kidney injury; cited from earlier work
IL-6 = details: animal models including diabetes, asthma, pancreatitis and hepatitis; cited from earlier work
NK, NKT, T and B cells = details: healthy rats, cited from earlier work
[8] = prophylactic, i.p. 0.3-80 mg/kg 60 min before LPS
[9] = therapeutic, 6 h after LPS, 20 mg/kg

SMILES: C=C(C)[C@@H]1CCC(C)=C[C@H]1c1c(O)cc(CCCCC)cc1O [CBD, 2-[(1R,6R)-3-methyl-6-(1-methylethenyl)-2-cyclohexen-1-yl]-5-pentyl-1,3-benzenediol]
- target peak exposure [1]: 2,300 ng/ml
- log P [2]: about 6.1
- maximum plasma concentration [3]: 14,000 ng/ml
- effective concentration for suppressive effect on IL-6 secretion (IL-6 secretion): ~5 µM
- number of leukocytes including macrophages and neutrophils in the bronchoalveolar lavage fluid ([4]; 20 mg/kg, after LPS-induced lung inflammation): decreases
- myeloperoxidase activity [4, 8]: significantly decreased
- pro-inflammatory cytokine production including TNF-α and IL-6 [4, 8]: significantly decreased
- total leukocytes migration [4, 8]: significantly decreased
- vascular permeability [4, 8]: significantly decreased
- leukocyte migration (neutrophil, macrophages and lymphocytes) into the lungs [4, 9]: decreased
- mechanical lung function [4, 9]: improved
- myeloperoxidase activity in the lung tissue [4, 9]: decreased
- production of proinflammatory cytokines/chemokines [4, 9]: reduced
- vascular permeability [4, 9]: reduced
- release of pro-inflammatory cytokines (human mononuclear cells): suppressed
- migration of human neutrophils (human neutrophils): inhibits
- CD83 dendritic cell activation marker (CD83; dendritic cells from healthy individuals): not
- CD83 dendritic cell activation marker (CD83; dendritic cells from individuals with HIV infection): suppresses
- apoptosis in microglial cells (microglial cells): induces apoptosis
- expression of MDSCs [5]: induces
- pro-inflammatory cytokines such as IL-2, TNF-α and IL-6 [5]: reduction
- IL-6 production and secretion [6]: decreased
- production of IL-10 [6]: increased
- Th17 signature cytokine IL-17 ([6]; dose-dependently): decrease
- decreased Treg17 levels and increased Th17 levels [7]: reversed these effects
- effect on kidney injury [7]: renoprotective
- circulating IL-6 (IL-6): suppress
- numbers of NK cells and NKT cells (NK, NKT, T and B cells; 2.5 mg/kg per day): increased
- numbers of NK cells and NKT cells (NK, NKT, T and B cells; 5 mg/kg per day): not affected
- number of T cells including T helper cells and cytotoxic T cells and of B cells (NK, NKT, T and B cells; daily 5 mg/kg): significantly reduced
